pKi: −log10 of the molar value.
Key:
[1] = cited from earlier work
[2] = molecular target: Human DOR (Homo sapiens (Human), UniProt P41143); assay: Opioid receptor affinity, Delta (DOR), NIMH PDSP; type: binding; conditions: read-out: DOR % inh. at 10 uM
Method: (§1) The compounds were tested for activity vs. opioid receptor subtypes Kappa (KOR), Delta (DOR) and Mu (MOR) at an initial concentration of 10 μM each, through the NIMH Psychoactive Drug Screening Program (PDSP), operated by Dr. Bryan Roth and his colleagues in the Department of Pharmacology at the University of North Carolina (Chapel Hill, N.C.) through an agreement with the National Institute of Mental Health (NIMH). Human KOR, DOR and MOR were expressed in CHO cells for each assay.

[3] = molecular target: Human MOR (Homo sapiens (Human), UniProt P35372); assay: Opioid receptor affinity, Mu (MOR), NIMH PDSP; type: binding; conditions: read-out: MOR % inh. at 10 uM
Method: as §1

[4] = molecular target: Human KOR (Homo sapiens (Human), UniProt P41145); assay: Opioid receptor affinity, Kappa (KOR), NIMH PDSP; type: binding; conditions: human KOR expressed in CHO cells
Method: as §1

Sequence of Human DOR (P41143 whole entry): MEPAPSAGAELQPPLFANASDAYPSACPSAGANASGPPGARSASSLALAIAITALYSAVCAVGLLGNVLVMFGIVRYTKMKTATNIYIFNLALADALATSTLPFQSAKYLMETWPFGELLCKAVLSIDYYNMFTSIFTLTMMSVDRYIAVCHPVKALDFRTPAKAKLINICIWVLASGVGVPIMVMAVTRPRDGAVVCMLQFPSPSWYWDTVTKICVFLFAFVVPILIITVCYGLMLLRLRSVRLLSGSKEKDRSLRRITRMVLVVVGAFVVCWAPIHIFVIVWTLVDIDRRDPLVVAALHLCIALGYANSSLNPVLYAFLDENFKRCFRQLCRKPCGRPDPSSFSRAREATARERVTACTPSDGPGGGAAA
Sequence of Human MOR (P35372 whole entry): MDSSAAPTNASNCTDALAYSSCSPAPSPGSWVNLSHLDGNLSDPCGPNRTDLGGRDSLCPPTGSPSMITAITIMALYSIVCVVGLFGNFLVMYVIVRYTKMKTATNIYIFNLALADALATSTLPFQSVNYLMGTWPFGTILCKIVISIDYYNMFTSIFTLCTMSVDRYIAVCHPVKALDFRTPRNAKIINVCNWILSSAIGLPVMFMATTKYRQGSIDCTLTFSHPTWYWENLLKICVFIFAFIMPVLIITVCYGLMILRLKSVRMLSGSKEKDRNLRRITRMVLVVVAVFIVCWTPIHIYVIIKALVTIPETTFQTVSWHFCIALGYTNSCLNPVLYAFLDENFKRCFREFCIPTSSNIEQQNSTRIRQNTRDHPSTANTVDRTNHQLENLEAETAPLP
Sequence of Human KOR (P41145 whole entry): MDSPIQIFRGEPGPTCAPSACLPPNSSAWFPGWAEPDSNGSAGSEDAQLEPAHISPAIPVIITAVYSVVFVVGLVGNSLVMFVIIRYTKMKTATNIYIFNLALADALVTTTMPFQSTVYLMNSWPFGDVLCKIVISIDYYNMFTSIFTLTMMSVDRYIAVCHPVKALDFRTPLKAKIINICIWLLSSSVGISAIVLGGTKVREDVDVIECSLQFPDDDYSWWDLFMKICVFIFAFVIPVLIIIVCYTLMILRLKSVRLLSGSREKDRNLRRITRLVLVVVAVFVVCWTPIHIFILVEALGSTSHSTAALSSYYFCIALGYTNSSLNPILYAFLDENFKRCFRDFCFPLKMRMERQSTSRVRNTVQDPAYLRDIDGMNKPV

Question: For `CC(C)C[C@@H](NC(=O)[C@@H](Cc1ccccc1)NC(=O)[C@H](N)Cc1ccccc1)C(=O)N[C@H](CCCCN)C(=O)N1CCC(N)(C(=O)O)CC1` [CR845], which “dysphoric behavior or hallucinations” value ([1]; Phase II trials in the U.S.) is on record?
Answer: Its value is “has not displayed dysphoric behavior or hallucinations”.

Question: And the “incidence of nausea and vomiting” value ([1]; post-operative patients)?
Answer: The value was “reduced incidence of nausea and vomiting”.

Question: Which inhibition at 10 µM [2] does the source give for `CN(C)CCCC1(c2ccc(F)cc2)OCc2cc(C(=N)NCc3ccccc3)ccc21` (stereo not shown) [Example 4, N-benzyl-1-[3-(dimethylamino)propyl]-1-(4-fluorophenyl)-1,3-dihydro-2-benzofuran-5-carboximidamide] here?
Answer: The inhibition at 10 µM was 10%.

Question: What about the inhibition at 10 µM [3] of the same compound?
Answer: Its inhibition at 10 µM is 39%.

Question: What about the pKi [4] of the same compound?
Answer: Its pKi is 7.52.

Question: What does the source list for `CN(C)CCCC1(c2ccc(F)cc2)OCc2cc(C(=N)N3CCCC3)ccc21` (stereo not shown) [Example 6, 1-[1-[3-(dimethylamino)propyl]-1-(4-fluorophenyl)-1,3-dihydro-2-benzofuran-5-yl]-1-(pyrrolidin-1-yl)-methanimine]?
Answer: inhibition at 10 µM [2]: 6%; inhibition at 10 µM [3]: 8%; pKi [4]: 6.60

Question: What does the source list for `CN(C)CCCC1(c2ccc(F)cc2)OCc2cc(-c3ncc[nH]3)ccc21` (stereo not shown) [Example 7]?
Answer: inhibition at 10 µM [2]: 24%; inhibition at 10 µM [3]: 39%

Source: patent US9700563B2, “Kappa opioid receptor compounds” (MediSynergies, LLC, priority 2012, dated 2017)
